Measured values reported in patent publication US10004701B2, “Methods and compositions for treating infection” (UNIVERSITY OF ROCHESTER, priority 2012, dated 2018).
Where a name gives a salt, the structure may show the parent alone. Read-outs that look alike come from different tables or passages of the source.

How the values were obtained:
Assay in all cases: AK assay 384-well format, Prestwick library screening
[1] = tested on: A. baumannii strain 98-37-09; format: cell-based, Acinetobacter baumannii; conditions: Acinetobacter baumannii, 983709, 3 h, 50 μM final drug concentration
E. coli = format: cell-based, Escherichia coli; conditions: Escherichia coli, 3 h, 50 μM final drug concentration
[2] = tested on: S. aureus strain USA300-0114; format: cell-based, Staphylococcus aureus; conditions: Staphylococcus aureus, USA300, 3 h, 50 μM final drug concentration
P. aeruginosa = format: cell-based, Pseudomonas aeruginosa; conditions: Pseudomonas aeruginosa, 3 h, 50 μM final drug concentration
E. cloacae = format: cell-based, Enterobacter cloacae; conditions: Enterobacter cloacae, 3 h, 50 μM final drug concentration
K. pneumoniae = format: cell-based, Klebsiella pneumoniae; conditions: Klebsiella pneumoniae, 3 h, 50 μM final drug concentration
E. faecium = format: cell-based, Enterococcus faecium; conditions: Enterococcus faecium, 3 h, 50 μM final drug concentration
[3] = 384-well format, cutoff for positive-scoring molecules 3-fold increase, read-out: AK-based Prestwick Library Screening Results, A. baumannii (increase in extracellular AK activity)
[4] = 384-well format, cutoff for positive-scoring molecules 3-fold increase, read-out: AK-based Prestwick Library Screening Results, E. coli (increase in extracellular AK activity)
[5] = 384-well format, cutoff for positive-scoring molecules 3-fold increase, read-out: AK-based Prestwick Library Screening Results, S. aureus (increase in extracellular AK activity)
[6] = 384-well format, cutoff for positive-scoring molecules 3-fold increase, read-out: AK-based Prestwick Library Screening Results, P. aeruginosa (increase in extracellular AK activity)
[7] = 384-well format, cutoff for positive-scoring molecules 3-fold increase, read-out: AK-based Prestwick Library Screening Results, E. cloacae (increase in extracellular AK activity)
[8] = 384-well format, cutoff for positive-scoring molecules 3-fold increase, read-out: AK-based Prestwick Library Screening Results, K. pneumoniae (increase in extracellular AK activity)
[9] = 384-well format, cutoff for positive-scoring molecules 3-fold increase, read-out: AK-based Prestwick Library Screening Results, E. faecium (increase in extracellular AK activity)
[10] = planktonic A. baumannii, 384-well, cutoff for positive-scoring molecules 3-fold increase, read-out: AK-based Prestwick Library Screening Results: A. baumannii (increase in extracellular AK activity)
[11] = planktonic S. aureus, 384-well, cutoff for positive-scoring molecules 3-fold increase, read-out: AK-based Prestwick Library Screening Results: S. aureus (increase in extracellular AK activity)
[12] = planktonic P. aeruginosa, 384-well, cutoff for positive-scoring molecules 3-fold increase, read-out: AK-based Prestwick Library Screening Results: P. aeruginosa (increase in extracellular AK activity)
[13] = planktonic E. cloacae, 384-well, cutoff for positive-scoring molecules 3-fold increase, read-out: AK-based Prestwick Library Screening Results: E. cloacae (increase in extracellular AK activity)
[14] = planktonic K. pneumoniae, 384-well, cutoff for positive-scoring molecules 3-fold increase, read-out: AK-based Prestwick Library Screening Results: K. pneumoniae (increase in extracellular AK activity)
[15] = planktonic E. faecium, 384-well, cutoff for positive-scoring molecules 3-fold increase, read-out: AK-based Prestwick Library Screening Results: E. faecium (increase in extracellular AK activity)
[16] = planktonic A. baumannii, positive cutoff 3-fold increase, read-out: AK-based Prestwick library screening result, A. baumannii (fold increase in extracellular AK activity)
[17] = planktonic E. coli, positive cutoff 3-fold increase, read-out: AK-based Prestwick library screening result, E. coli (fold increase in extracellular AK activity)
[18] = planktonic S. aureus, positive cutoff 3-fold increase, read-out: AK-based Prestwick library screening result, S. aureus (fold increase in extracellular AK activity)
[19] = planktonic P. aeruginosa, positive cutoff 3-fold increase, read-out: AK-based Prestwick library screening result, P. aeruginosa (fold increase in extracellular AK activity)
[20] = planktonic E. cloacae, positive cutoff 3-fold increase, read-out: AK-based Prestwick library screening result, E. cloacae (fold increase in extracellular AK activity)
[21] = planktonic K. pneumoniae, positive cutoff 3-fold increase, read-out: AK-based Prestwick library screening result, K. pneumoniae (fold increase in extracellular AK activity)
[22] = planktonic E. faecium, positive cutoff 3-fold increase, read-out: AK-based Prestwick library screening result, E. faecium (fold increase in extracellular AK activity)
[23] = planktonic, cutoff for positive 3-fold increase, read-out: AK-based Prestwick Library Screening Results, A. baumannii (fold increase in extracellular AK activity)
[24] = planktonic, cutoff for positive 3-fold increase, read-out: AK-based Prestwick Library Screening Results, E. coli (fold increase in extracellular AK activity)
[25] = planktonic, cutoff for positive 3-fold increase, read-out: AK-based Prestwick Library Screening Results, S. aureus (fold increase in extracellular AK activity)
[26] = planktonic, cutoff for positive 3-fold increase, read-out: AK-based Prestwick Library Screening Results, P. aeruginosa (fold increase in extracellular AK activity)
[27] = planktonic, cutoff for positive 3-fold increase, read-out: AK-based Prestwick Library Screening Results, E. cloacae (fold increase in extracellular AK activity)
[28] = planktonic, cutoff for positive 3-fold increase, read-out: AK-based Prestwick Library Screening Results, K. pneumoniae (fold increase in extracellular AK activity)
[29] = planktonic, cutoff for positive 3-fold increase, read-out: AK-based Prestwick Library Screening Results, E. faecium (fold increase in extracellular AK activity)
[30] = planktonic E. coli, 384-well, cutoff for positive-scoring molecules 3-fold increase, read-out: AK-based Prestwick Library Screening Results: E. coli (increase in extracellular AK activity)
[31] = planktonic A. baumannii, cutoff for positive-scoring molecules 3-fold increase, read-out: AK-based Prestwick Library Screening Results, A. baumannii (increase in extracellular AK activity)
[32] = planktonic E. coli, cutoff for positive-scoring molecules 3-fold increase, read-out: AK-based Prestwick Library Screening Results, E. coli (increase in extracellular AK activity)
[33] = planktonic S. aureus, cutoff for positive-scoring molecules 3-fold increase, read-out: AK-based Prestwick Library Screening Results, S. aureus (increase in extracellular AK activity)
[34] = planktonic P. aeruginosa, cutoff for positive-scoring molecules 3-fold increase, read-out: AK-based Prestwick Library Screening Results, P. aeruginosa (increase in extracellular AK activity)
[35] = planktonic E. cloacae, cutoff for positive-scoring molecules 3-fold increase, read-out: AK-based Prestwick Library Screening Results, E. cloacae (increase in extracellular AK activity)
[36] = planktonic K. pneumoniae, cutoff for positive-scoring molecules 3-fold increase, read-out: AK-based Prestwick Library Screening Results, K. pneumoniae (increase in extracellular AK activity)
[37] = planktonic E. faecium, cutoff for positive-scoring molecules 3-fold increase, read-out: AK-based Prestwick Library Screening Results, E. faecium (increase in extracellular AK activity)

COc1ccc(OC)c(C(O)CNC(=O)CN)c1 (stereo not drawn) [Midodrine hydrochloride]
fold induction at 50 µM [1, 3]: 0.9 | fold induction at 50 µM (E. coli; [4]): 1 | fold induction at 50 µM [2, 5]: 0.9 | fold induction at 50 µM (P. aeruginosa; [6]): 0.9 | fold induction at 50 µM (E. cloacae; [7]): 1 | fold induction at 50 µM (K. pneumoniae; [8]): 0.7 | fold induction at 50 µM (E. faecium; [9]): 1

CC#C[C@]1(O)CC[C@H]2[C@@H]3CCC4=CC(=O)CCC4=C3[C@@H](c3ccc(N(C)C)cc3)C[C@@]21C [Mifepristone]
fold induction at 50 µM [1, 10]: 1.1 | fold induction at 50 µM (E. coli; planktonic E. coli, 384-well, […], read-out: AK-based Prestwick Library Screening Results: E. coli (increase in extracellular AK activity)): 1.3 | fold induction at 50 µM [2, 11]: 0.7 | fold induction at 50 µM (P. aeruginosa; [12]): 1 | fold induction at 50 µM (E. cloacae; [13]): 1.4 | fold induction at 50 µM (K. pneumoniae; [14]): 0.9 | fold induction at 50 µM (E. faecium; [15]): 1.1

Cc1[nH]c(=O)c(C#N)cc1-c1ccncc1 [Milrinone]
fold induction at 50 µM [1, 16]: 0.8 | fold induction at 50 µM (E. coli; [17]): 0.8 | fold induction at 50 µM [2, 18]: 0.7 | fold induction at 50 µM (P. aeruginosa; [19]): 0.9 | fold induction at 50 µM (E. cloacae; [20]): 0.9 | fold induction at 50 µM (K. pneumoniae; [21]): 0.8 | fold induction at 50 µM (E. faecium; [22]): 0.9

NC(Cn1ccc(=O)c(O)c1)C(=O)O (stereo not drawn) [Mimosine]
fold induction at 50 µM [1, 23]: 0.9 | fold induction at 50 µM (E. coli; [24]): 1 | fold induction at 50 µM [2, 25]: 1.4 | fold induction at 50 µM (P. aeruginosa; [26]): 1.1 | fold induction at 50 µM (E. cloacae; [27]): 1.5 | fold induction at 50 µM (K. pneumoniae; [28]): 0.9 | fold induction at 50 µM (E. faecium; [29]): 1

Cc1cc(-c2ccccc2)nnc1NCCN1CCOCC1 [Minaprine dihydrochloride]
fold induction at 50 µM [1, 10]: 1.3 | fold induction at 50 µM (E. coli; [30]): 1.3 | fold induction at 50 µM [2, 11]: 1 | fold induction at 50 µM (P. aeruginosa; [12]): 1.1 | fold induction at 50 µM (E. cloacae; [13]): 1.3 | fold induction at 50 µM (K. pneumoniae; [14]): 0.9 | fold induction at 50 µM (E. faecium; [15]): 0.8

CN(C)c1ccc(O)c2c1C[C@H]1C[C@H]3[C@H](N(C)C)C(O)=C(C(N)=O)C(=O)[C@@]3(O)C(O)=C1C2=O [Minocycline hydrochloride]
fold induction at 50 µM [1, 10]: 3.9 | fold induction at 50 µM (E. coli; [30]): 2.3 | fold induction at 50 µM [2, 11]: 6.9 | fold induction at 50 µM (P. aeruginosa; [12]): 0.7 | fold induction at 50 µM (E. cloacae; [13]): 0.9 | fold induction at 50 µM (K. pneumoniae; [14]): 0.6 | fold induction at 50 µM (E. faecium; [15]): 1.1

Nc1cc(N2CCCCC2)nc(N)[n+]1[O-] [Minoxidil]
fold induction at 50 µM [1, 3]: 0.8 | fold induction at 50 µM (E. coli; [4]): 0.6 | fold induction at 50 µM [2, 5]: 0.7 | fold induction at 50 µM (P. aeruginosa; [6]): 0.6 | fold induction at 50 µM (E. cloacae; [7]): 0.7 | fold induction at 50 µM (K. pneumoniae; [8]): 0.6 | fold induction at 50 µM (E. faecium; [9]): 1

O=C1c2c(O)ccc(O)c2C(=O)c2c(NCCNCCO)ccc(NCCNCCO)c21 [Mitoxantrone dihydrochloride]
fold induction at 50 µM [1, 23]: 1.5 | fold induction at 50 µM (E. coli; planktonic, […], read-out: AK-based Prestwick Library Screening Results, E. coli (fold increase in extracellular AK activity)): 1.5 | fold induction at 50 µM [2, 25]: 0.7 | fold induction at 50 µM (P. aeruginosa; [26]): 0.9 | fold induction at 50 µM (E. cloacae; [27]): 1.2 | fold induction at 50 µM (K. pneumoniae; [28]): 1 | fold induction at 50 µM (E. faecium; [29]): 0.8

O=C(NCCN1CCOCC1)c1ccc(Cl)cc1 [Moclobemide]
fold induction at 50 µM [1, 31]: 0.7 | fold induction at 50 µM (E. coli; [32]): 0.9 | fold induction at 50 µM [2, 33]: 0.6 | fold induction at 50 µM (P. aeruginosa; [34]): 0.8 | fold induction at 50 µM (E. cloacae; [35]): 1.2 | fold induction at 50 µM (K. pneumoniae; [36]): 0.6 | fold induction at 50 µM (E. faecium; [37]): 0.9

CCc1c(C)[nH]c2c1C(=O)C(CN1CCOCC1)CC2 (stereo not drawn) [Molindone hydrochloride]
fold induction at 50 µM [1, 16]: 1.1 | fold induction at 50 µM (E. coli; [17]): 1.1 | fold induction at 50 µM [2, 18]: 1.1 | fold induction at 50 µM (P. aeruginosa; [19]): 0.9 | fold induction at 50 µM (E. cloacae; [20]): 1.7 | fold induction at 50 µM (K. pneumoniae; [21]): 1 | fold induction at 50 µM (E. faecium; [22]): 1

CCOC(=O)[N-]c1cn(N2CCOCC2)n[o+]1 [Molsidomine]
fold induction at 50 µM [1, 23]: 1.2 | fold induction at 50 µM (E. coli; [24]): 1.4 | fold induction at 50 µM [2, 25]: 0.9 | fold induction at 50 µM (P. aeruginosa; [26]): 1.1 | fold induction at 50 µM (E. cloacae; [27]): 1.5 | fold induction at 50 µM (K. pneumoniae; [28]): 1 | fold induction at 50 µM (E. faecium; [29]): 0.9

C[C@@H]1C[C@H]2[C@@H]3CCC4=CC(=O)C=C[C@]4(C)[C@@]3(Cl)[C@@H](O)C[C@]2(C)[C@@]1(OC(=O)c1ccco1)C(=O)CCl [Mometasone furoate]
fold induction at 50 µM [1, 31]: 0.9 | fold induction at 50 µM (E. coli; [32]): 0.9 | fold induction at 50 µM [2, 33]: 0.4 | fold induction at 50 µM (P. aeruginosa; [34]): 0.6 | fold induction at 50 µM (E. cloacae; [35]): 0.9 | fold induction at 50 µM (K. pneumoniae; [36]): 0.7 | fold induction at 50 µM (E. faecium; [37]): 1
